Earlier results in US8668932B2 (priority 2003, dated 2014).

Experiments:
[1] = test system: monoamine oxidase
[2] = test system: neuronal norepinephrine reuptake
[3] = test system: histaminergic receptors
[4] = for elimination half-life (T½): in vivo
[5] = test system: dopamine reuptake
[6] = not given; remark: listed apart in the source
[7] = test system: alpha-1 adrenergic receptors
[8] = test system: neuronal serotonin reuptake

Structure (SMILES)	inhibition of monoamine oxidase [1]	pKa	inhibition of neuronal norepinephrine reuptake [2]	affinity for histaminergic receptors [3]	elimination half-life (T½) [4] [h]	absolute bioavailability ([4]; oral)	time to steady-state concentrations ([4]; oral multiple dose therapy)	fraction of dose absorbed ([4]; single oral dose, mass balance studies)	inhibition of dopamine reuptake [5]	plasma protein binding [6]	affinity for alpha-1 adrenergic receptors [7]	inhibition of neuronal serotonin reuptake [8]
COc1ccc(C(CN(C)C)C2(O)CCCCC2)cc1.Cl (racemic) [venlafaxine, (R/S)-1-[2-(dimethylamino)-1-(4-methoxyphenyl)ethyl]cyclohexanol hydrochloride]	does not inhibit	9.4	potent inhibitors	no significant affinity	5 ± 2	about 45%	three	at least 92%	weak inhibitors	approximately 30%	no significant affinity	–
CN(C)CC(c1ccc(O)cc1)C1(O)CCCCC1 (stereo not drawn) [ODV, O-desmethylvenlafaxine]	–	–	potent inhibitors	–	11 ± 2	–	–	–	weak inhibitors	–	–	potent inhibitors
